# Reference: ChEMBL document CHEMBL1132382 (J Med Chem, 1999)
# Assays:
# [1] = biological target: Carbonic anhydrase 1 (Homo sapiens, UniProt P00915)
# Description: Inhibitory activity against human recombinant carbonic anhydrase I (CA1)
# [2] = biological target: T1, Carbonic anhydrase 4 (Bos taurus, UniProt Q95323)
# T1 sequence (Q95323 whole entry): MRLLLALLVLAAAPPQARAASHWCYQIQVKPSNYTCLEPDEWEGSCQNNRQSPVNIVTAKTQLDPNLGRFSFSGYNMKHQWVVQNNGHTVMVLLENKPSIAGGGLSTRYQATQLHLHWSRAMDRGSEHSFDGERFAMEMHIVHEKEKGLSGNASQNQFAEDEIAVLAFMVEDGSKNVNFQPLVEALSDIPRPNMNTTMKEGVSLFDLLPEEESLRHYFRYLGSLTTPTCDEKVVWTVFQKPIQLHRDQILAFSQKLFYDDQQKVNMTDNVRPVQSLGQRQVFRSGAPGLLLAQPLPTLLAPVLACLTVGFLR
# Description: Inhibitory activity against bovine carbonic anhydrase IV (CA4), isolated from bovine lung microsomes
# Carbonic anhydrase 1, sequence (P00915 whole entry): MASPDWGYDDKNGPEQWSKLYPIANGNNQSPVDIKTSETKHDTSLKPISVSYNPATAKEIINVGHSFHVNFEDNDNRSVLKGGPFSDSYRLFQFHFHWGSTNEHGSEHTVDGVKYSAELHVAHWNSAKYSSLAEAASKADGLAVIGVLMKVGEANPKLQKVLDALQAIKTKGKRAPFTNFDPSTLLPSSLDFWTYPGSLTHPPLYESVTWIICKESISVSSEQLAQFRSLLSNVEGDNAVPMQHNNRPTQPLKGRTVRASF
Ki [1] [nM],Ki [2] [nM],SMILES
17,72,NCC(=O)Nc1ccc2nc(S(N)(=O)=O)sc2c1
850,76,NCC(=O)NCCc1ccc(S(N)(=O)=O)cc1
570,70,NCC(=O)NCC(=O)Nc1ccc(S(N)(=O)=O)cc1Br
610,74,NCC(=O)Nc1ccc(S(N)(=O)=O)cc1I
22000,280,CNCC(=O)NNc1ccc(S(N)(=O)=O)cc1
–,154,Nc1nccc(Nc2ccc(S(N)(=O)=O)cc2)n1
820,70,CNCC(=O)NCCc1ccc(S(N)(=O)=O)cc1
1800,180,NCC(=O)NS(=O)(=O)c1ccc(CO)cc1
600,78,NCC(=O)Nc1ccc(S(N)(=O)=O)cc1Cl
800,70,NCC(=O)NCC(=O)NCCc1ccc(S(N)(=O)=O)cc1
14600,140,CN(CC(=O)Nc1ccc(S(N)(=O)=O)cc1)C(=N)N
20800,245,CN(CC(=O)NNc1ccc(S(N)(=O)=O)cc1)C(=N)N
25000,245,NCC(=O)Nc1ccccc1S(N)(=O)=O
16200,177,CN(CC(=O)Nc1cccc(S(N)(=O)=O)c1)C(=N)N
15000,146,CNCC(=O)Nc1ccc(S(N)(=O)=O)cc1
1360,75,NCC(=O)NCC(=O)NCc1ccc(S(N)(=O)=O)cc1
–,175,NCC(=O)Nc1ccc(S(N)(=O)=O)cc1
13,–,Cn1nc(S(N)(=O)=O)s/c1=N\S(=O)(=O)c1ccc(NC(=O)CNC(=O)CN)cc1
15,–,Cn1nc(S(N)(=O)=O)s/c1=N\S(=O)(=O)c1ccc(NC(=O)CN)cc1
11,–,CNCC(=O)Nc1ccc(S(=O)(=O)/N=c2\sc(S(N)(=O)=O)nn2C)cc1

# Continued, compound first:
SMILES,Ki [1] [nM],Ki [2] [nM]
NCC(=O)NS(=O)(=O)c1nc2ccc(OCCO)cc2s1,9,23
NCC(=O)NS(=O)(=O)c1nc2ccc(O)cc2s1,16,69
NCC(=O)Nc1cc(Cl)c(S(N)(=O)=O)cc1S(N)(=O)=O,360,60
NCC(=O)NCC(=O)NS(=O)(=O)c1ccc(CO)cc1,1500,150
Cn1nc(S(N)(=O)=O)s/c1=N\C(=O)CN,335,70
CN(CC(=O)Nc1c(S(N)(=O)=O)cc(S(N)(=O)=O)c(Cl)c1Cl)C(=N)N,525,51
NCC(=O)NCC(=O)Nc1cc(Cl)c(S(N)(=O)=O)cc1S(N)(=O)=O,360,54
CNCC(=O)NS(=O)(=O)c1ccc(CO)cc1,1500,123
CNCC(=O)NS(=O)(=O)c1nc2ccc(OCCO)cc2s1,10,15
CNCC(=O)Nc1ccc2nc(S(N)(=O)=O)sc2c1,10,14
CN(CC(=O)Nc1ccc(S(=O)(=O)/N=c2\sc(S(N)(=O)=O)nn2C)cc1)C(=N)N,11,–
NCC(=O)NCC(=O)NS(=O)(=O)c1nc2ccc(O)cc2s1,12,62
NCC(=O)NCC(=O)NS(=O)(=O)c1ccc(CCO)cc1,1500,150
CN(CC(=O)Nc1cc(Cl)c(S(N)(=O)=O)cc1S(N)(=O)=O)C(=N)N,310,42
Cn1nc(S(N)(=O)=O)s/c1=N/C(=O)CNC(=O)CN,280,44
Nc1ccc(S(=O)(=O)Nc2ccc(S(N)(=O)=O)cc2)cc1,–,50
CNCC(=O)Nc1ccc(S(N)(=O)=O)cc1I,560,70
NCC(=O)NCC(=O)Nc1ccccc1S(N)(=O)=O,23500,240
NCC(=O)NCC(=O)Nc1ccc2nc(S(N)(=O)=O)sc2c1,16,64
CNCC(=O)Nc1c(S(N)(=O)=O)cc(S(N)(=O)=O)c(Cl)c1Cl,520,55
